Source: patent US8129424B2, “Indole derivatives as histamine 3 receptor inhibitors for the treatment of cognitive and sleep disorders, obesity and other CNS disorders” (Athersys, Inc., priority 2005, dated 2012)

target: T1, human histamine H3 receptor (Homo sapiens, UniProt Q9Y5N1); experiment: Radioligand competition binding assay with [125I]iodoproxyfan on RAGE-H3 cell membranes; details: [125I]iodoproxyfan competition binding, apparent Ki by Cheng-Prussof equation
T1 construct: expressed in transfected cells; host or cells: HT1080-Gqαi5 cells (human), pFG8-HH3 RAGE vector integrated; methotrexate-amplified clone RAGE-H3
Protocol: Representative compounds of the present invention that were prepared by the procedures of Examples 1-41 were evaluated in binding assays against cells expressing human H3 receptor by the following procedure.
The human histamine H3 receptor was stably expressed in HT1080 cells containing the chimeric G-protein, Gq[…]i5 (Coward et al., Anal Biochem 1999; 270:242-8). HT1080-Gqαi5 cells were grown in alpha-modified MEM containing 10% fetal bovine serum and 7 μg/ml blasticidin at 37° C. in 5% CO2/95% atmosphere. Cells (4.8×10^9) were irradiated with 50 rads from a ^137Cs source and the pFG8-HH3 RAGE (Random Activation of Gene Expression; see Harrington et al., Nature Biotechnology. 2001; 19:440-45) vector was subsequently integrated into the cells via electroporation (250V, 600 μF, 50Ω). The RAGE vector pFG8-HH3 contained cDNA sequence coding for the first exon (83 amino acids) of human H3 receptor. After electroporation, cells were plated in T75 flasks and grown in alpha-modified MEM. The culture medium was replaced 48 hours after electroporation with alpha-modified MEM, 10% fetal bovine serum, 500 μg/ml hygromycin B and 3 μg/ml puromycin. Medium was replaced every four days during cell expansion. To identify RAGE activated cells expressing the H3 receptor, pools of approximately 10,000 colonies (5×10^7-1.5×10^8 cells total) were screened by PCR for the desired gene product (using primers specific to the RAGE vector and exon 2 of the H3 receptor). […] Positive 100 cells/well pools were identified by PCR, confirmed by sequencing, and subsequently subcloned to 0.8 cells/well. Once clones expressing the H3 receptor were identified by PCR analysis, assays (FLIPR or radioligand binding) were performed to confirm that the activated gene produced functional protein. The protein expression in the initial clones obtained from the RAGE library was increased by growth in the presence of methotrexate. Since the integrated RAGE vector contains the DHFR gene, such treatment selects for cells that have amplified the genetic locus containing the RAGE insert. Subclones obtained after methotrexate amplification were tested for functional activity in FLIPR assays to identify the clone that was most suitable for HTS. The final HT1080-Gqαi5 RAGE clone (RAGE-H3) expressing the human histamine H3 receptor was grown in alpha-modified MEM containing 10% fetal bovine serum, 3 μg/ml puromycin, 500 μg/ml hygromycin B, 3.2 μM methotrexate at 37° C. in 5% CO2/95% atmosphere.
RAGE-H3 cells (10^9) were washed twice with cold PBS, scraped off the plates, and centrifuged at 1000×g for 5 minutes. Cells were resuspended in ice-cold 10 mM Tris HCl, pH 7.4, containing 5 mM EDTA and protease inhibitor cocktail tablets (Roche Molecular Biochemicals). After incubating on ice for 10 minutes, the cells were homogenized with a dounce homogenizer or a polytron tissue grinder, and centrifuged at 1000×g for 10 minutes at 4° C. The resulting supernatant was centrifuged at 32,000×g for 30 minutes at 4° C. The membrane pellets were resuspended in 50 mM Tris HCl, pH 7.4, and stored at −80° C. until use. Protein concentration was determined by the Bradford method (Bio-Rad Laboratories, CA).
Binding assays were carried out in 96-well polypropylene plates in 50 mM Tris HCl, pH 7.4, containing 1 mM EDTA. Reaction mixtures contained 100 μl of membrane suspension, 50 of 4% DMSO, and 50 μl of increasing amounts of [^125I]iodoproxyfan (final concentration 0.0005-1.8 nM for human H3 receptor saturation binding assay). Nonspecific binding was defined by adding 10 μM clobenpropit to the reaction mixtures. Competition binding assays were performed in a reaction mixture containing 100 μl of membrane suspension (˜20 μg of protein/well), 50 μl of [^125I]iodoproxyfan (final concentration of ˜0.15 nM) and 50 μl of test compound. Compounds were dissolved in DMSO and then diluted with 4% DMSO; the final maximal DMSO concentration in the binding assays was 1%. […]

T1 sequence (Q9Y5N1 whole entry): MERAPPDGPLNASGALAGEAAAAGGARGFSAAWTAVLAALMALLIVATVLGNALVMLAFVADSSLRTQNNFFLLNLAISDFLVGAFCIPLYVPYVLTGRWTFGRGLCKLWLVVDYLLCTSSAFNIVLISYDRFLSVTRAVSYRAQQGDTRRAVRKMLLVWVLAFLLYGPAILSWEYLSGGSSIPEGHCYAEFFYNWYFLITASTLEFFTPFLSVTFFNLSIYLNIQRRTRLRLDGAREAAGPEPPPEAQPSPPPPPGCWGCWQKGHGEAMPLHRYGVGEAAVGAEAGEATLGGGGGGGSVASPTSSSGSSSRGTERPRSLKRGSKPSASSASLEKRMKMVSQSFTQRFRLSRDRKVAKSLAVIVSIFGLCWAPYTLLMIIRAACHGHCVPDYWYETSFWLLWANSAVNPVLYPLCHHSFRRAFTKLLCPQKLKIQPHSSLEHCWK

Ki | SMILES
< 10 nM | c1ccc2c(c1)cc(C1CC1)n2C1CCC(OCCCN2CCCC2)CC1 (single isomer, unassigned) [Example 39, 2-Cyclopropyl-1-[4-(3-pyrrolidin-1-ylpropoxy)cyclohexyl]-1H-indole]
< 10 nM | Cc1cc2ccccc2n1-c1ccc(OCCCN2CCCC2)cc1 [Example 1, 2-Methyl-1-[4-(3-pyrrolidin-1-ylpropoxy)phenyl]-1H-indole]
< 10 nM | Cc1cc2ccccc2n1-c1ccc(OCCCN2CCCCC2)cc1 [Example 2, 2-Methyl-1-[4-(3-piperidin-1-ylpropoxy)phenyl]-1H-indole]
< 10 nM | Cc1cc2ccccc2n1-c1ccc(OCCCN2CCC[C@H]2C)cc1 [Example 3, 2-Methyl-1-{4-[3-(2R-methylpyrrolidin-1-yl)propoxy]phenyl}-1H-indole]
< 100 nM | Cc1ccc2c(c1)cc(C)n2-c1ccc(OCCCN2CCCC2)cc1 [Example 11, 2,5-Dimethyl-1-[4-(3-pyrrolidin-1-ylpropoxy)phenyl]-1H-indole]
< 100 nM | Clc1ccc2ccn(-c3ccc(OCCCN4CCCC4)cc3)c2c1 [Example 12, 6-Chloro-1-[4-(3-pyrrolidin-1-ylpropoxy)phenyl]-1H-indole]
< 10 nM | Cc1cc2cc(F)ccc2n1-c1ccc(OCCCN2CCCC2)cc1 [Example 13, 2-Methyl-5-fluoro-1-[4-(3-pyrrolidin-1-ylpropoxy)phenyl]-1H-indole]
< 10 nM | COc1ccc2c(c1)cc(C(=O)N1CCCC1)n2-c1ccc(OCCCN2CCC[C@H]2C)cc1 [Example 18, (5-Methoxy-1-{4-[3-(2R-methylpyrrolidin-1-yl)propoxy]phenyl}-1H-indol-2-yl)pyrrolidin-1-ylmethanone]
< 10 nM | C[C@@H]1CCCN1CCCOc1ccc(-n2c(C(=O)NC3CCC3)cc3ccccc32)cc1 [Example 19, 1-{4-[3-(2R-Methylpyrrolidin-1-yl)propoxy]phenyl}-1H-indole-2-carboxylic acid cyclobutylamide]
< 10 nM | C[C@@H]1CCCN1CCCOc1ccc(-n2c(C(=O)NC3CCCC3)cc3ccccc32)cc1 [Example 20, 1-{4-[3-(2R-Methylpyrrolidin-1-yl)propoxy]phenyl}-1H-indole-2-carboxylic acid cyclopentylamide]
< 100 nM | C[C@@H]1CCCN1CCCOc1ccc(-n2c(C(=O)NC3CCCCC3)cc3ccccc32)cc1 [Example 21, 1-{4-[3-(2R-Methylpyrrolidin-1-yl)propoxy]phenyl}-1H-indole-2-carboxylic acid cyclohexylamide]
< 100 nM | C[C@@H]1CCCN1CCCOc1ccc(-n2c(C(=O)NC3CCCCCC3)cc3ccccc32)cc1 [Example 22, 1-{4-[3-(2R-Methylpyrrolidin-1-yl)propoxy]phenyl}-1H-indole-2-carboxylic acid cycloheptylamide]
< 10 nM | C[C@@H]1CCCN1CCCOc1ccc(-n2c(C(=O)N3CCCC3)cc3ccccc32)cc1 [Example 23, (1-{4-[3-(2R-Methylpyrrolidin-1-yl)propoxy]phenyl}-1H-indol-2-yl)pyrrolidin-1-ylmethanone]
< 10 nM | C[C@@H]1CCCN1CCCOc1ccc(-n2c(C(=O)N3CCCCC3)cc3ccccc32)cc1 [Example 24, (1-{4-[3-(2R-Methylpyrrolidin-1-yl)propoxy]phenyl}-1H-indol-2-yl)piperidin-1-ylmethanone]
< 10 nM | C[C@@H]1CCCN1CCCOc1ccc(-n2c(C(=O)N3CCOCC3)cc3ccccc32)cc1 [Example 25, (1-{4-[3-(2R-Methylpyrrolidin-1-yl)propoxy]phenyl}-1H-indol-2-yl)morpholin-4-ylmethanone]
< 10 nM | CCCCNC(=O)c1cc2ccccc2n1-c1ccc(OCCCN2CCC[C@H]2C)cc1 [Example 26, 1-{4-[3-(2R-Methylpyrrolidin-1-yl)propoxy]phenyl}-1H-indole-2-carboxylic acid butylamide]

Ki | SMILES
< 10 nM | CC(C)CNC(=O)c1cc2ccccc2n1-c1ccc(OCCCN2CCC[C@H]2C)cc1 [Example 27, 1-{4-[3-(2R-Methylpyrrolidin-1-yl)propoxy]phenyl}-1H-indole-2-carboxylic acid isobutylamide]
< 10 nM | C[C@@H]1CCCN1CCCOc1ccc(-n2c(C(=O)NCC3CCCCC3)cc3ccccc32)cc1 [Example 28, 1-{4-[3-(2R-Methylpyrrolidin-1-yl)propoxy]phenyl}-1H-indole-2-carboxylic acid cyclohexylmethylamide]
< 10 nM | COc1ccc2c(c1)cc(C(=O)NC1CCCCC1)n2-c1ccc(OCCCN2CCC[C@H]2C)cc1 [Example 29, 5-Methoxy-1-{4-[3-(2R-methylpyrrolidin-1-yl)propoxy]phenyl}-1H-indole-2-carboxylic acid cyclohexylamide]
< 10 nM | CCOC(=O)c1cc2ccccc2n1-c1ccc(OCCCN2CCCC2)cc1 [Example 30, 1-[4-(3-Pyrrolidin-1-ylpropoxy)phenyl]-1H-indole-2-carboxylic acid ethyl ester]
< 10 nM | OCc1cc2ccccc2n1-c1ccc(OCCCN2CCCC2)cc1 [Example 31, {1-[4-(3-Pyrrolidin-1-ylpropoxy)phenyl]-1H-indol-2-yl}methanol]
< 10 nM | COCc1cc2ccccc2n1-c1ccc(OCCCN2CCCC2)cc1 [Example 32, 2-Methoxymethyl-1-[4-(3-pyrrolidin-1-ylpropoxy)phenyl]-1H-indole]
< 10 nM | c1ccc2c(c1)cc(COC1CCCCC1)n2-c1ccc(OCCCN2CCCC2)cc1 [Example 33, 2-Cyclohexyloxymethyl-1-[4-(3-pyrrolidin-1-ylpropoxy)phenyl]-1H-indole]
< 10 nM | CC(C)OCc1cc2ccccc2n1-c1ccc(OCCCN2CCCC2)cc1 [Example 34, 2-Isopropoxymethyl-1-[4-(3-pyrrolidin-1-ylpropoxy)phenyl]-1H-indole]
< 10 nM | c1ccc2c(c1)cc(COC1CCCC1)n2-c1ccc(OCCCN2CCCC2)cc1 [Example 35, 2-Cyclopentyloxymethyl-1-[4-(3-pyrrolidin-1-ylpropoxy)phenyl]-1H-indole]
< 10 nM | COc1ccc2c(c1)cc(CO)n2-c1ccc(OCCCN2CCCC2)cc1 [Example 36, {5-Methoxy-1-[4-(3-pyrrolidin-1-ylpropoxy)phenyl]-1H-indol-2-yl}methanol]
< 10 nM | CCCc1cc2ccccc2n1-c1ccc(OCCCN2CCCC2)cc1 [Example 38, 2-Propyl-1-[4-(3-pyrrolidin-1-ylpropoxy)phenyl]-1H-indole]
< 10 nM | COCCc1cc2ccccc2n1-c1ccc(OCCCN2CCCC2)cc1 [Example 40, 2-(2-Methoxyethyl)-1-[4-(3-pyrrolidin-1-ylpropoxy)phenyl]-1H-indole]
< 10 nM | OCCc1cc2ccccc2n1-c1ccc(OCCCN2CCCC2)cc1 [Example 41, 2-{1-[4-(3-Pyrrolidin-1-ylpropoxy)phenyl]-1H-indol-2-yl}ethanol]
< 10 nM | COCc1cc2cc(OC)ccc2n1-c1ccc(OCCCN2CCCC2)cc1 [Example 42, 5-Methoxy-2-methoxymethyl-1-[4-(3-pyrrolidin-1-ylpropoxy)phenyl]-1H-indole]
< 10 nM | COCc1cc2cc(C)ccc2n1-c1ccc(OCCCN2CCCC2)cc1 [Example 43, 5-Methyl-2-methoxymethyl-1-[4-(3-pyrrolidin-1-ylpropoxy)phenyl]-1H-indole]
< 10 nM | COCc1cc2cc(F)ccc2n1-c1ccc(OCCCN2CCCC2)cc1 [Example 44, 5-Fluoro-2-methoxymethyl-1-[4-(3-pyrrolidin-1-ylpropoxy)phenyl]-1H-indole]
